# Values joined by “and” are separate entries in the source; they are usually repeats but may differ in a detail not shown here. Equal values may be shown once. Inconclusive results are not listed.
# System: Lewis lung carcinoma i.m., BDF1 mice, T/C %
# Assay: NCI In Vivo Anticancer Drug Screen. Data for tumor model Lewis Lung Carcinoma (intramuscular) in B6D2F1 (BDF1) mice
# In short: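 Mice carrying transplantable tumours received test compound. Survival or tumour size was recorded and expressed as the treated-group value (T) divided by the vehicle-treated control-group value (C).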
# [1] = endpoint: median survival time, dose: 0.25 mg/kg/injection, schedule: Q01DX011 (ip), vehicle: saline, higher = longer survival
# [2] = endpoint: median survival time, dose: 0.5 mg/kg/injection, schedule: Q01DX011 (ip), vehicle: saline, higher = longer survival
smiles,measurement,setting,value
C1CN1c1nc(N2CC2)nc(N2CC2)n1,T/C,"endpoint: mean tumor weight (est.), dose: 0.06 mg/kg/injection, schedule: Q01DX011 (ip), vehicle: saline, higher = larger tumour",78 % of control
same,T/C,"endpoint: mean tumor weight (est.), dose: 0.12 mg/kg/injection, schedule: Q01DX011 (ip), vehicle: saline, higher = larger tumour",67 % of control
same,T/C,"endpoint: mean tumor weight (est.), dose: 0.25 mg/kg/injection, schedule: Q01DX011 (ip), vehicle: saline, higher = larger tumour",37 % of control
same,T/C,"endpoint: mean tumor weight (est.), dose: 0.5 mg/kg/injection, schedule: Q01DX011 (ip), vehicle: saline, higher = larger tumour",37 % of control
same,T/C,"endpoint: mean tumor weight, dose: 0.12 mg/kg/injection, schedule: Q01DX011 (ip), vehicle: saline, higher = larger tumour",73 % of control
same,T/C,"endpoint: mean tumor weight, dose: 0.25 mg/kg/injection, schedule: Q01DX011 (ip), vehicle: saline, higher = larger tumour",73 % of control
same,T/C,"endpoint: median survival time, dose: 0.06 mg/kg/injection, schedule: Q01DX011 (ip), vehicle: saline, higher = longer survival",97 % of control
same,T/C,"endpoint: median survival time, dose: 0.1 mg/kg/injection, schedule: Q01DX011 (ip), vehicle: saline, higher = longer survival",116 % of control
same,T/C,"endpoint: median survival time, dose: 0.12 mg/kg/injection, schedule: Q01DX011 (ip), vehicle: saline, higher = longer survival",100 % of control and 106 % of control
same,T/C,"endpoint: median survival time, dose: 0.2 mg/kg/injection, schedule: Q01DX011 (ip), vehicle: saline, higher = longer survival",106 % of control
same,T/C,[1],110 % of control
same,T/C,"endpoint: median survival time, dose: 0.4 mg/kg/injection, schedule: Q01DX011 (ip), vehicle: saline, higher = longer survival",89 % of control
same,T/C,[2],122 % of control
NC(Cc1c[nH]c2ccc(N(CCCl)CCCl)cc12)C(=O)O (configuration not stated),T/C,"endpoint: mean tumor weight, dose: 0.06 mg/kg/injection, schedule: Q01DX011 (ip), vehicle: other, higher = larger tumour",90 % of control
same,T/C,"endpoint: mean tumor weight, dose: 0.12 mg/kg/injection, schedule: Q01DX011 (ip), vehicle: other, higher = larger tumour",96 % of control
same,T/C,"endpoint: mean tumor weight, dose: 0.25 mg/kg/injection, schedule: Q01DX011 (ip), vehicle: other, higher = larger tumour",105 % of control
same,T/C,"endpoint: mean tumor weight, dose: 0.5 mg/kg/injection, schedule: Q01DX011 (ip), vehicle: other, higher = larger tumour",97 % of control
same,T/C,"endpoint: mean tumor weight, dose: 1.0 mg/kg/injection, schedule: Q01DX011 (ip), vehicle: other, higher = larger tumour",83 % of control
same,T/C,"endpoint: mean tumor weight, dose: 2.0 mg/kg/injection, schedule: Q01DX011 (ip), vehicle: other, higher = larger tumour",103 % of control
same,T/C,"endpoint: median survival time, dose: 0.06 mg/kg/injection, schedule: Q01DX011 (ip), vehicle: other, higher = longer survival",94 % of control
same,T/C,"endpoint: median survival time, dose: 0.12 mg/kg/injection, schedule: Q01DX011 (ip), vehicle: other, higher = longer survival",102 % of control
same,T/C,"endpoint: median survival time, dose: 0.25 mg/kg/injection, schedule: Q01DX011 (ip), vehicle: acid diluted with saline, higher = longer survival",89 % of control
same,T/C,"endpoint: median survival time, dose: 0.25 mg/kg/injection, schedule: Q01DX011 (ip), vehicle: other, higher = longer survival",86 % of control
same,T/C,"endpoint: median survival time, dose: 0.5 mg/kg/injection, schedule: Q01DX011 (ip), vehicle: acid diluted with saline, higher = longer survival",105 % of control
same,T/C,"endpoint: median survival time, dose: 0.5 mg/kg/injection, schedule: Q01DX011 (ip), vehicle: other, higher = longer survival",96 % of control
same,T/C,"endpoint: median survival time, dose: 1.0 mg/kg/injection, schedule: Q01DX011 (ip), vehicle: other, higher = longer survival",104 % of control
CO[C@@]12[C@H](COC(N)=O)C3=C(C(=O)C(C)=C(N)C3=O)N1C[C@@H]1N[C@@H]12,T/C,"endpoint: mean tumor weight, dose: 0.5 mg/kg/injection, schedule: Q01DX005 (ip), vehicle: other, higher = larger tumour",101 % of control
same,T/C,"endpoint: mean tumor weight, dose: 1.0 mg/kg/injection, schedule: Q01DX005 (ip), vehicle: other, higher = larger tumour",82 % of control
same,T/C,"endpoint: mean tumor weight, dose: 2.0 mg/kg/injection, schedule: Q01DX005 (ip), vehicle: other, higher = larger tumour",75 % of control
same,T/C,"endpoint: median survival time, dose: 0.25 mg/kg/injection, schedule: Q01DX009 (ip), vehicle: Klucel (hydroxypropylcellulose) (HPC), higher = longer survival",86 % of control and 112 % of control
same,T/C,[1],112 % of control
same,T/C,"endpoint: median survival time, dose: 0.5 mg/kg/injection, schedule: Q01DX005 (ip), vehicle: other, higher = longer survival",90 % of control
same,T/C,"endpoint: median survival time, dose: 0.5 mg/kg/injection, schedule: Q01DX005 (ip), vehicle: saline, higher = longer survival",107 % of control
same,T/C,"endpoint: median survival time, dose: 0.5 mg/kg/injection, schedule: Q01DX009 (ip), vehicle: Klucel (hydroxypropylcellulose) (HPC), higher = longer survival",101 % of control and 110 % of control
same,T/C,[2],114 % of control
same,T/C,"endpoint: median survival time, dose: 1.0 mg/kg/injection, schedule: Q01DX005 (ip), vehicle: saline, higher = longer survival",90 % of control
same,T/C,"endpoint: median survival time, dose: 1.0 mg/kg/injection, schedule: Q01DX009 (ip), vehicle: Klucel (hydroxypropylcellulose) (HPC), higher = longer survival",97 % of control
same,T/C,"endpoint: median survival time, dose: 1.0 mg/kg/injection, schedule: Q01DX011 (ip), vehicle: water, higher = longer survival",86 % of control
same,T/C,"endpoint: median survival time, dose: 2.0 mg/kg/injection, schedule: Q01DX005 (ip), vehicle: other, higher = longer survival",114 % of control
same,T/C,"endpoint: median tumor weight (est.), dose: 0.5 mg/kg/injection, schedule: Q01DX005 (ip), vehicle: saline, higher = larger tumour",64 % of control
same,T/C,"endpoint: median tumor weight (est.), dose: 1.0 mg/kg/injection, schedule: Q01DX005 (ip), vehicle: saline, higher = larger tumour",78 % of control
Clc1nc2ccccc2nc1CI,T/C,"endpoint: mean tumor weight (est.), dose: 5.0 mg/kg/injection, schedule: Q01DX011 (ip), vehicle: saline, higher = larger tumour",70 % of control
same,T/C,"endpoint: median survival time, dose: 5.0 mg/kg/injection, schedule: Q01DX011 (ip), vehicle: saline, higher = longer survival",100 % of control
CN(C)CCCNc1c2ccccc2nc2cccc([N+](=O)[O-])c12,T/C,"endpoint: median survival time, dose: 0.1 mg/kg/injection, schedule: Q02DX011 (ip), vehicle: saline, higher = longer survival",88 % of control
same,T/C,"endpoint: median survival time, dose: 2.0 micrograms/kg/injection, schedule: Q01DX009 (ip), vehicle: saline, higher = longer survival",120 % of control
same,T/C,"endpoint: median survival time, dose: 4.0 micrograms/kg/injection, schedule: Q01DX009 (ip), vehicle: saline, higher = longer survival",92 % of control and 104 % of control
same,T/C,"endpoint: median survival time, dose: 16.0 micrograms/kg/injection, schedule: Q01DX009 (ip), vehicle: saline, higher = longer survival",109 % of control
same,T/C,"endpoint: median survival time, dose: 32.0 micrograms/kg/injection, schedule: Q01DX009 (ip), vehicle: saline, higher = longer survival",100 % of control
same,T/C,"endpoint: median survival time, dose: 64.0 micrograms/kg/injection, schedule: Q01DX009 (ip), vehicle: saline, higher = longer survival",88 % of control and 107 % of control
CCCCC(CCC)(CCN)CCCC,T/C,"endpoint: mean tumor weight (est.), dose: 1.0 mg/kg/injection, schedule: Q01DX011 (ip), vehicle: saline with Tween-80, higher = larger tumour",90 % of control
same,T/C,"endpoint: mean tumor weight (est.), dose: 2.0 mg/kg/injection, schedule: Q01DX011 (ip), vehicle: saline with Tween-80, higher = larger tumour",97 % of control
same,T/C,"endpoint: mean tumor weight (est.), dose: 4.0 mg/kg/injection, schedule: Q01DX011 (ip), vehicle: saline with Tween-80, higher = larger tumour",102 % of control
same,T/C,"endpoint: mean tumor weight (est.), dose: 8.0 mg/kg/injection, schedule: Q01DX011 (ip), vehicle: saline with Tween-80, higher = larger tumour",69 % of control
same,T/C,"endpoint: median survival time, dose: 1.0 mg/kg/injection, schedule: Q01DX011 (ip), vehicle: saline with Tween-80, higher = longer survival",103 % of control
same,T/C,"endpoint: median survival time, dose: 2.0 mg/kg/injection, schedule: Q01DX011 (ip), vehicle: saline with Tween-80, higher = longer survival",92 % of control
same,T/C,"endpoint: median survival time, dose: 4.0 mg/kg/injection, schedule: Q01DX011 (ip), vehicle: saline with Tween-80, higher = longer survival",94 % of control
same,T/C,"endpoint: median survival time, dose: 8.0 mg/kg/injection, schedule: Q01DX011 (ip), vehicle: saline with Tween-80, higher = longer survival",92 % of control
COC1C(O)C(O)OC(CO)C1O (configuration not stated),T/C,"endpoint: mean tumor weight (est.), dose: 500.0 mg/kg/injection, schedule: Q01DX011 (ip), vehicle: saline, higher = larger tumour",83 % of control
same,T/C,"endpoint: mean tumor weight (est.), dose: 1000.0 mg/kg/injection, schedule: Q01DX011 (ip), vehicle: saline, higher = larger tumour",77 % of control
same,T/C,"endpoint: median survival time, dose: 500.0 mg/kg/injection, schedule: Q01DX011 (ip), vehicle: saline, higher = longer survival",106 % of control
same,T/C,"endpoint: median survival time, dose: 1000.0 mg/kg/injection, schedule: Q01DX011 (ip), vehicle: saline, higher = longer survival",112 % of control
O=NN(CCCl)C(=O)Nc1ccc(CCCl)cc1,T/C,"endpoint: median survival time, dose: 3.0 mg/kg/injection, schedule: Q07DX003 (ip), vehicle: Klucel (hydroxypropylcellulose) (HPC), higher = longer survival",110 % of control
same,T/C,"endpoint: median survival time, dose: 5.0 mg/kg/injection, schedule: Q07DX003 (ip), vehicle: Klucel (hydroxypropylcellulose) (HPC), higher = longer survival",116 % of control
same,T/C,"endpoint: median survival time, dose: 8.4 mg/kg/injection, schedule: Q07DX003 (ip), vehicle: Klucel (hydroxypropylcellulose) (HPC), higher = longer survival",108 % of control
same,T/C,"endpoint: median survival time, dose: 14.0 mg/kg/injection, schedule: Q07DX003 (ip), vehicle: Klucel (hydroxypropylcellulose) (HPC), higher = longer survival",116 % of control
same,T/C,"endpoint: median survival time, dose: 23.0 mg/kg/injection, schedule: Q07DX003 (ip), vehicle: Klucel (hydroxypropylcellulose) (HPC), higher = longer survival",95 % of control
CCN1/C(=C/C=C/c2oc3ccccc3[n+]2CC)Oc2ccccc21,T/C,"endpoint: mean tumor weight (est.), dose: 3.7 micrograms/kg/injection, schedule: Q01DX011 (ip), vehicle: saline, higher = larger tumour",87 % of control
same,T/C,"endpoint: mean tumor weight (est.), dose: 75.0 micrograms/kg/injection, schedule: Q01DX011 (ip), vehicle: saline, higher = larger tumour",99 % of control
same,T/C,"endpoint: mean tumor weight (est.), dose: 150.0 micrograms/kg/injection, schedule: Q01DX011 (ip), vehicle: saline, higher = larger tumour",103 % of control
same,T/C,"endpoint: mean tumor weight (est.), dose: 300.0 micrograms/kg/injection, schedule: Q01DX011 (ip), vehicle: saline, higher = larger tumour",86 % of control
same,T/C,"endpoint: median survival time, dose: 37.5 micrograms/kg/injection, schedule: Q01DX011 (ip), vehicle: saline, higher = longer survival",93 % of control
same,T/C,"endpoint: median survival time, dose: 300.0 micrograms/kg/injection, schedule: Q01DX011 (ip), vehicle: saline, higher = longer survival",87 % of control
